As a reminder, the IC50 is the midpoint of a concentration-inhibition curve. A high value points to weaker potency.

We go through three compounds from patent US11384048B2, “Aromatic vinyl or aromatic ethyl derivative, preparation method therefor, intermediate, pharmaceutical composition, and application” (GUANGZHOU MAXINOVEL PHARMACEUTICALS CO., LTD., priority 2017, dated 2022).

Bounds are passed on as bounds.

In the experiment the target is PD-1/PD-L1 (Homo sapiens (Human), UniProt Q9NZQ7). Nature of the experiment: Homogenouse Time-Resolved Fluorescence (HTRF) binding assay PD-1/PD-L1. Particulars: CisBio kit #64CUS000C-1. How it is done: Homogenouse Time-Resolved Fluorescence (HTRF) binding assay was used to determine the binding activity of the compound of the present disclosure to PD-1/PD-L1.
Chain of PD-1/PD-L1 (Q9NZQ7 19-238): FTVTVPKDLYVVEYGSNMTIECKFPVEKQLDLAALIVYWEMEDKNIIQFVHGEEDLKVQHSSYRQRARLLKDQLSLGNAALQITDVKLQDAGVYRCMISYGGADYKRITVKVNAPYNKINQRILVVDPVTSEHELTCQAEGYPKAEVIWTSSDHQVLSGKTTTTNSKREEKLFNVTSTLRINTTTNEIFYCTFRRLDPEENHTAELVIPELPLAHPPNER
The purchased kit (CisBio, #64CUS000C-1) contained the reagents required for experiments such as PD-1, PD-L1, anti-tag1-Eu, Anti-tag2-XL665, Dilute Buffer and Detection Buffer.
1. The compound was formulated to 10 concentrations with a three-fold concentration gradient with 100% DMSO.
2. The solution of the compound in DMSO was added to Dilute Buffer, and mixed evenly and then transferred to a 96-well plate.
3. PD-L1 was diluted with Dilute Buffer and added to the 96-well plate above.
4. PD-1 was diluted with Dilute Buffer, then added to the 96-well plate above and incubated at room temperature for 30 minutes.
5. One portion of anti-tag1-Eu and one portion of anti-tag2-XL665 were added to Detection Buffer, mixed evenly and transferred to the 96-well plate above.
6. The mixed solution in the 96-well plate were incubated at room temperature for 1 to 24 hours.
7. HTRF values were read by Envision.
For orientation: In TR-FRET formats the signal depends on donor and acceptor labels being close together.
Regarding `Cc1c(/C=C/c2cc(CN[C@@](C)(CO)C(=O)O)ccc2C(F)(F)F)cccc1-c1ccc2nccn2c1` [Compound 36], the half-inhibitory concentration (IC50) was above 10000 nM. Then `Cc1c(/C=C/c2cc(CN[C@@](C)(CO)C(=O)O)ccc2C(F)(F)F)cccc1-c1cn2ccnc2cn1` [Compound 37], with 1300 nM; and `Cc1nc2ccc(-c3cccc(/C=C/c4cc(CN[C@@](C)(CO)C(=O)O)ccc4C(F)(F)F)c3C)cc2o1` [Compound 43, (S,E)-3-hydroxy-2-methyl-2-(3-(2-methyl-3-(2-methylbenzo[d]oxazol-6-yl)-styryl)-4-(trifluoromethyl)benzylamino)-3-hydroxy-2-methylpropanoic acid], with 540 nM.
